Laboratory results from article PMC9145622, “Synthesis, Biological Evaluation, and Docking Studies of Antagonistic Hydroxylated Arecaidine Esters Targeting mAChRs” (Molecules, 2022).

Legend:
hM4 = target: T1, hM4 (Homo sapiens, UniProt P08173); assay: Competitive [3H]NMS radioligand binding, CHO-K1 membranes expressing hM4; settings: [3H]NMS, CHO-hM4 cell membrane preparations; read-out: Affinity: Ki ± SD hM4
T1 sequence (P08173 1-479): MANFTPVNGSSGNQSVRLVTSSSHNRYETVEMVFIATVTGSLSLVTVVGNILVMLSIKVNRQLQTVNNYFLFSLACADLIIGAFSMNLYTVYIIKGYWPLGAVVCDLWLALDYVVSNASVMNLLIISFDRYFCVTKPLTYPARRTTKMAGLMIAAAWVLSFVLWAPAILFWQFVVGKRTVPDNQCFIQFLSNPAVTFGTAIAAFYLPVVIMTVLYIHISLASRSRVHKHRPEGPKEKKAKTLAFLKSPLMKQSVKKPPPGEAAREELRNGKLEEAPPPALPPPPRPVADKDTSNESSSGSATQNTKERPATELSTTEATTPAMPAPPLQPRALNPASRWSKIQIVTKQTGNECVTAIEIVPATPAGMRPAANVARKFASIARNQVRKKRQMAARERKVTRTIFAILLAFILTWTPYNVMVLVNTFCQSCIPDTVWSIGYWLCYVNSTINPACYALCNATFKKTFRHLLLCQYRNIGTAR
Description: (§1) The arecaidine esters’ affinities towards the human mAChR subtypes hM1–hM5 were studied in a competitive radioligand binding assay using CHO-K1 cell membrane homogenates expressing a single mAChR subtype and tritiated N-methyl scopolamine methyl chloride ([^3H]NMS). To speed up our affinity testing regime, we subjected all test substances to preliminary single-concentration displacement assays, as described previously. Compounds with percent displacements below 75% at any of the subtypes were dropped from further investigations (Table S1). For compounds meeting the percent displacement threshold (8c, 10b, 10c, 17b, 18b, and 25), inhibition constants (Ki) were assessed in dose-dependent displacement experiments (Table 2).
(§2) Cell membranes bearing hM1-hM5 receptors were prepared as described previously. Briefly, stably transfected CHO-K1 cells were grown to at least 80% confluency in T175 flasks, washed with ice-cold DPBS, and scraped into a mixture of ice-cold 2 mL 10 mM Tris-HCl, 1 mM EDTA-buffer, pH 7.4 and 200 µL protease inhibitor. A cell homogenate was prepared by passing the cell suspension through a G29 needle. The cell homogenates corresponding to two T175 flasks were combined and subsequently centrifuged (10 min, 1000× g, 4 °C). Ultracentrifugation of the supernatant (1 h, 100,000× g, 4 °C) yielded a membrane pellet, which was suspended in 250 µL 50 mM Tris-HCl buffer, pH 7.4 and stored at −80 °C.
(§3) Then, 5 µL of test compound in DMSO, 50 µL of [^3H]NMS in assay buffer, and 445 µL of membrane suspension in assay buffer were incubated for 90 min at 23 °C in PP tubes. Maximum binding was measured by using 5 µL DMSO, and nonspecific binding was measured by using 5 µL of 1 µM scopolamine in DMSO. The effective concentration of [^3H]NMS was 0.2 nM, 0.3 nM, 0.8 nM, 0.2 nM, and 1 nM for M1–M5 and 4–30 µg membrane were used per tube. The membrane-bound radioactivity was recovered by filtration through Whatman™ GF/B glass fiber filters presoaked in aqueous 0.1% PEI using an M-36 tygon tubed cell harvester (Brandel®, Gaithersburg, MD, USA). Membranes were washed three times with ice-cold washing buffer (50 mM Tris, pH 7.4) before being dried, transferred to 2 mL scintillation cocktail (UltimaGold™, high flashpoint LSC cocktail, PerkinElmer, Waltham, MA, USA) and counted in a β-counter (Hidex TDCR liquid scintillation counter in CPM mode). IC50 values were calculated by a variable slope logistic regression using at least five distinct concentrations of test compounds, pipetted in triplicates.

hM2 = target: T2, hM2 (Homo sapiens, UniProt P08172); assay: Competitive [3H]NMS radioligand binding, CHO-K1 membranes expressing hM2; settings: [3H]NMS, CHO-hM2 cell membrane preparations; >1000 values from two independent (single-concentration) experiments; read-out: Affinity: Ki ± SD hM2
T2 sequence (P08172 1-466): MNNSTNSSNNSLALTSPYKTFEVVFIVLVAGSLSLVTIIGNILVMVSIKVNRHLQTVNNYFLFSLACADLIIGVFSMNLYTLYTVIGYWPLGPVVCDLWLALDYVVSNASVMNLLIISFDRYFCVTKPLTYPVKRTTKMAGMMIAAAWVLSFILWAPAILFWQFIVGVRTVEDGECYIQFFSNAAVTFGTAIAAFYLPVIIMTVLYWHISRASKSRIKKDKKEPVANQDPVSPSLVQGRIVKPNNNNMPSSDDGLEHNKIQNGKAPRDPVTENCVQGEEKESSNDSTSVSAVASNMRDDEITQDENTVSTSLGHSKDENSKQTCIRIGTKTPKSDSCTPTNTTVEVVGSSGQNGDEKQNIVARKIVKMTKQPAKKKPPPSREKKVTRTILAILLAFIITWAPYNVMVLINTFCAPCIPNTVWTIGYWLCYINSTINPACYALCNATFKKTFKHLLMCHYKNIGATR
Description: as §1, §2, §3

Ki (hM4)	Ki (hM2)	SMILES
217 ± 23 nM	> 1000 nM	CN1CCC=C(C(=O)OCC(O)(c2ccccc2)c2ccccc2)C1 [Compound 25, 2-hydroxy-2,2-diphenylethyl 1-methyl-1,2,5,6-tetrahydropyridine-3-carboxylate]
18.4 ± 5.8 nM	172 ± 20 nM	CN1CCC=C(C(=O)OC(c2ccccc2)c2cccc(O)c2)C1 (stereo not shown) [Compound 17b, (3-hydroxyphenyl)(phenyl)methyl 1-methyl-1,2,5,6-tetrahydropyridine-3-carboxylate]
634 ± 90 nM	> 1000 nM	CN1CCC=C(C(=O)OCc2cccc(O)c2)C1 [Compound 18b, 3-hydroxybenzyl 1-methyl-1,2,5,6-tetrahydropyridine-3-carboxylate]

More lines, now with the values behind:

SMILES	Ki (hM4)	Ki (hM2)
CN1CCC=C(C(=O)OC(c2ccccc2)c2ccc(CO)cc2)C1 (stereo not shown) [Compound 10c, (4-(hydroxymethyl)phenyl)(phenyl)methyl 1-methyl-1,2,5,6-tetrahydropyridine-3-carboxylate]	93 ± 23 nM	980 ± 32 nM
CN1CCC=C(C(=O)OCc2ccc(CO)cc2)C1 [Compound 8c, 4-(hydroxymethyl)benzyl 1-methyl-1,2,5,6-tetrahydropyridine-3-carboxylate]	697 ± 132 nM	> 1000 nM
